Here are results for one compound from publication PMC6646369, “A new bioavailable fenretinide formulation with antiproliferative, antimetabolic, and cytotoxic effects on solid tumors” (Cell Death & Disease, 2019).

Data set [1] in a line: Aqueous solubility of fenretinide (saturation in water, spectrophotometric at 360 nm). The format is physicochemical. The conditions noted are these: water at 25 °C; read-out: Solubility in H2O. How it is done:
The first step of NanoFEN preparation involved fenretinide salification to raise its aqueous solubility to the extent required for complexation with cyclodextrins. […] The complex was analyzed by ^1H-NMR to detect the presence of chemical shift changes with respect to the free drug as indicators of fenretinide inclusion into the cyclodextrin hydrophobic cavity. […] The ^1H-NMR spectra were recorded by an Inova 600 MHz High Resolution NMR Spectrometer. The amount of fenretinide incorporated into the complex was spectrophotometrically determined in solutions obtained by dissolving known amounts of the solid complex in a water:ethanol (1:1, v-v) mixture with the aim to dissociate the drug from the complex and maintain its solubilization in the aqueous phase in the presence of ethanol. The hydro-alcoholic solutions were analyzed for their fenretinide content at the maximum wavelength of the fenretinide absorption (360 nm). The aqueous solubility of fenretinide complexed with 2-hydroxypropyl-β-cyclodextrin was measured in comparison with the pure drug. […] After filtration the saturated solutions were spectrophotometrically analysed at 360 nm for their fenretinide content.

Data set [2] can be described thus: Plasma pharmacokinetics of fenretinide in mice. The class given is in vivo, CD1 female mice. The protocol:
The experiments were performed in CD1 female mice, 7 weeks of age, (body weight 25 ± 2 g) obtained from Envigo RMS SrL (Udine, Italy). Mice were maintained under specific-pathogen-free conditions with constant temperature and humidity, according to the institutional guidelines of the Istituto Superiore di Sanità Animal Care Committee. Animal experimentation was conducted in conformance with the following laws, regulations, and policies governing the care and use of laboratory animals: Italian Governing Law (D. l. 26/2014; Authorization n.19/2008-A issued March 6, 2008 by the Ministry of Health). The pharmacokinetics of NanoFEN, administered by oral or intravenous route, was investigated in mice receiving the formulation at doses corresponding to 5 mg/kg of fenretinide. The intravenous administration was carried out by injection in the tail vein of an intravenous bolus of NanoFEN dissolved in water or PureFEN suspended in a mixture of ethanol 10 % in saline as a comparison. For the oral administration the mice were gavaged the with NanoFEN dissolved in water or with the reconstituted content of the NCI capules, i.e., fenretinide (100 mg) in corn oil (704 mg) and Polysorbate 80 (60 mg) as a comparison. After the intravenous or oral treatments, a series of blood samples were taken at 15 and 30 min and at 1, 2, 4, 8, 10, 24 and 48 h. Blood was collected in heparinized tubes from the retro-orbital plexus of the mice under isoflurane anesthesia. To obtain plasma, blood samples were centrifuged at 4000 rpm for 10 min at 4 °C. The samples were stored at −20 °C until analysis. The total concentration of fenretinide in plasma of mice was determined according to a method previously described. Briefly, aliquot of 200 μl of each plasma sample was added to 400 μl of Acetonitrile (CH3CN) containing 125 μg/mL Butylated hydroxytoluene (BHT), and the mixture was vortexed and centrifuged to pellet the precipitated proteins. The recovered supernatants were analysed on a liquid chromatograph (Perkin-Elmer, Norwall, CT) fitted with a C18 (50 mm × 2.0 mm, 5 μm) reverse-phase column and a C18 precolumn (Perkin-Elmer, Milan, Italy). The mobile phase consisted of CH3CN:H2O:CH3COOH (75:2:2, v:v:v) delivered at a flow rate of 2 mL/min. Detection was carried out with a Perkin-Elmer LC95 absorbance detector at 362 nm. N-(4-ethoxyphenyl)-retinamide (EPR) was used as internal standard. For the quantitative evaluation, reference standard curves were set up in control mouse plasma with different known amounts of NanoFEN or PureFEN. The measured fenretinide concentration-vs-time data were elaborated by non-compartmental analysis (WinNonLin software v3) to obtain the main pharmacokinetic parameters of NanoFEN.

[3] abbreviates: mouse, iv, CD1 female mice, 5 mg/Kg fenretinide, plasma.
The mark [4] stands for this setting: mouse, plasma, iv, CD1 female mice, 5 mg/Kg fenretinide.

Values after ≈ are worked out from the molar mass of the structure shown.

For the compound `CC1=C(/C=C/C(C)=C/C=C/C(C)=C/C(=O)Nc2ccc(O)cc2)C(C)(C)CCC1` [PureFEN, N-(4-Hydroxyphenyl) retinamide], the solubility – broadly, the dissolved amount per volume that the medium holds – at 12 h in data set [1] is 1.71 µg/mL (≈ 4.37 µM). The compound further gave an HL in data set [2] (CD1 female mice, 5 mg/Kg fenretinide, i.v.) of 7.87 h. The AUC – broadly, concentration integrated over time – in data set [2] (female, CD1, mouse, iv, Fig. 1e, single administration of 5 mg/kg, plasma) is 6570 ng·h/mL. In data set [2] (setting [3]), the AUC(0-inf) (as a rule, the area under the concentration-time curve extrapolated to infinity) came out at 6570 ng·h/mL; the AUC(0-t) – broadly, the area under the concentration-time curve up to a stated or last time point – came out at 6420 ng·h/mL; the peak level (Cmax) was 4130 ng/mL. For the same compound, in data set [2] (setting [4]), the Vd – broadly, a proportionality between amount in the body and measured concentration, not a real space – was 6.52 L/kg; the clearance (in general, the rate of elimination divided by the concentration) is 9.57 mL/min/kg. In addition, the k el in data set [2] (mouse, plasma, iv, CD1 female mice, 5 mg/Kg fenretinide, i.v., read-out: Ke (converted)) is 2.44e-05 s⁻¹.
